# What was measured:
# [1] = Lipophilicity, log D of compound at pH 7.4; format: physicochemical; settings: buffer
# [2] = target: Potassium voltage-gated channel subfamily A member 5 (Homo sapiens, UniProt P22460); experiment: Inhibition of human Kv1.5 channel expressed in CHO cells by high throughput planar patch clamp assay; format: cell-based
# [3] = target: Intermediate conductance calcium-activated potassium channel protein 4 (Homo sapiens, UniProt O15554); experiment: Inhibition of IK channel (unknown origin)
# Chain of Intermediate conductance calcium-activated potassium channel protein 4 (O15554 whole entry): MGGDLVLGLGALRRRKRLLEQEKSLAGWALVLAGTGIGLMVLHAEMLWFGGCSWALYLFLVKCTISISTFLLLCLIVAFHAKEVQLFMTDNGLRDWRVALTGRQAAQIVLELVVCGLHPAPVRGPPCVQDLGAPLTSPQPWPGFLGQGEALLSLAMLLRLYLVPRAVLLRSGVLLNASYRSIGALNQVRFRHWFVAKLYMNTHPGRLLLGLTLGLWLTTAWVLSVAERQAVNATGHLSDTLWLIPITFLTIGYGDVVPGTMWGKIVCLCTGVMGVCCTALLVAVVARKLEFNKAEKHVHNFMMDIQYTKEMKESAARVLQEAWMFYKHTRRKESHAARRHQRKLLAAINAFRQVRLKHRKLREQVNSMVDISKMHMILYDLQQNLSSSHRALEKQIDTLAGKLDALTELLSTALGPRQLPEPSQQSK
# [4] = target: Voltage-gated inwardly rectifying potassium channel KCNH2 (Homo sapiens, UniProt Q12809)
# Chain of Voltage-gated inwardly rectifying potassium channel KCNH2 (Q12809 whole entry): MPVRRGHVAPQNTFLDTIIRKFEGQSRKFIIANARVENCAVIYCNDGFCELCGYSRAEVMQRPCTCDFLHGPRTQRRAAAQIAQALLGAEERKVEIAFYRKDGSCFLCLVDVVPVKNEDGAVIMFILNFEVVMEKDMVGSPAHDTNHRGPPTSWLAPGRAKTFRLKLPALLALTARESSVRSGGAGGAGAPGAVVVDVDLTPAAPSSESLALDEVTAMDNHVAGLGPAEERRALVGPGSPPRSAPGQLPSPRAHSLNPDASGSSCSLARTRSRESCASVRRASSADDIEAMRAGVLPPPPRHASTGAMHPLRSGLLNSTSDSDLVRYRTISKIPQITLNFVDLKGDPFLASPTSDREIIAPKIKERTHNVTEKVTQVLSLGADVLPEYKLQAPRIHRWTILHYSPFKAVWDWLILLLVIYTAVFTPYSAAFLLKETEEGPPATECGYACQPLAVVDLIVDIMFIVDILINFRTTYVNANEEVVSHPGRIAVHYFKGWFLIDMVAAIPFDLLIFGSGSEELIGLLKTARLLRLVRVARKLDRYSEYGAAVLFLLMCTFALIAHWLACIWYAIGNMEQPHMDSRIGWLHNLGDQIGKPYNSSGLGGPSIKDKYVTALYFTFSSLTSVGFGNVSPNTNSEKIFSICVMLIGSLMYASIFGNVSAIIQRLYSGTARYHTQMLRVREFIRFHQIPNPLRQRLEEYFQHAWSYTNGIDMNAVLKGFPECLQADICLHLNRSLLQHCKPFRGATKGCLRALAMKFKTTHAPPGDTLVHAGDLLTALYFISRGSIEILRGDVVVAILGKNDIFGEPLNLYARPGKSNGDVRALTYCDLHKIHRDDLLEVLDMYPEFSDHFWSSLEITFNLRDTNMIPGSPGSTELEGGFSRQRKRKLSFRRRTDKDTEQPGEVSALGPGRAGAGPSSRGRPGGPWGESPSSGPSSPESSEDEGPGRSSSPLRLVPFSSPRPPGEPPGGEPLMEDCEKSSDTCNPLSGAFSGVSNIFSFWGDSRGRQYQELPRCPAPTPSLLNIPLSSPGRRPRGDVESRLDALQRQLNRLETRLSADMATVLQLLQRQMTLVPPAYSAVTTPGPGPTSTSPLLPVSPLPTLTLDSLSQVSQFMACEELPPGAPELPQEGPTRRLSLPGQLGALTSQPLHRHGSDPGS
# [5] = tested on: Oryctolagus cuniculus; experiment: Toxicity in New Zealand white rabbit assessed as CNS effect at 0.1 and 1 umol/kg/min; format: organism-based, Central nervous system; settings: in vivo
# [6] = Oral bioavailability in rat; format: ADME, organism-based; settings: in vivo
# [7] = Clearance in rat; format: ADME, organism-based; settings: in vivo
# [8] = Solubility of the compound at pH 7.4; format: physicochemical; settings: buffer
# [9] = Apparent permeability of the compound in human Caco2 cells; format: ADME, cell-based; settings: Caco-2
# [10] = Intrinsic clearance in human liver microsomes; format: ADME, Microsome; settings: read-out: CLH
# [11] = species on record: Oryctolagus cuniculus; experiment: Toxicity in New Zealand white rabbit assessed as CNS effect at plasma concentration of 3 to 4 times 20% change in atrium effective refractory period; format: organism-based; settings: in vivo
# [12] = tested on: Oryctolagus cuniculus; experiment: Increase of effective refractory period in New Zealand white rabbit assessed as maximum change in QT interval at 0.1 and 1 umol/kg/min for 15 mins infusions; format: functional
# [13] = tested on: Plasma; experiment: Unbound steady state plasma concentration in New Zealand white rabbit assessed as concentration required to 20% change in atrium effective refractory period at 0.1 and 1 umol/kg/min for 15 mins infusions; format: ADME, cell-free, Oryctolagus cuniculus; settings: 0.25 h
# Chain of Potassium voltage-gated channel subfamily A member 5 (P22460 whole entry): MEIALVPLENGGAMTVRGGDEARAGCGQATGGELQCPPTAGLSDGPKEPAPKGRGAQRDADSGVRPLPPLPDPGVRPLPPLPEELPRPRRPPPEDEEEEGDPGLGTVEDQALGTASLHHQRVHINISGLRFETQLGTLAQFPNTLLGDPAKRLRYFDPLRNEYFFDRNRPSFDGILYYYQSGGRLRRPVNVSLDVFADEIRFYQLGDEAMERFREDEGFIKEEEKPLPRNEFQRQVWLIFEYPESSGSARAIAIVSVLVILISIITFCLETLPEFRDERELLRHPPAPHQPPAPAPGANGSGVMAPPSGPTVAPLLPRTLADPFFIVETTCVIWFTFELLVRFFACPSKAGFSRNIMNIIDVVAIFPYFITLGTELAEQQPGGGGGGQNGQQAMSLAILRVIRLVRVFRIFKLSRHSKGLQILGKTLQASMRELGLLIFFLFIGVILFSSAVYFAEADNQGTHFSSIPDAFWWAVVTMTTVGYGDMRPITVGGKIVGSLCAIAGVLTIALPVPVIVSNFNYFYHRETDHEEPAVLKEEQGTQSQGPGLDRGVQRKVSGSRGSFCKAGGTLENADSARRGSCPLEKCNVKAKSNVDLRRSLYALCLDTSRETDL
structure (smiles),measurement,setting,value
CC(C)[C@@H]1CC[C@@H](C)C[C@@H]1P(=O)(c1ccccc1)c1ccccc1,logD,[1],6
c1ccc([C@H]([C@@H](c2ccccc2)N2CCCCC2)N2CCCCC2)cc1,IC50,[2],1700 nM
CCCN(c1cccc(C#N)c1)P(=O)(c1ccccc1)c1ccccc1,IC50,[3],2.7 µM
same,IC50,[2],200 nM
same,IC50,[4],> 33 µM
CCCN(c1cccc(S(C)(=O)=O)c1)P(=O)(c1ccccc1)c1ccccc1,Activity,[5],Toxic
same,IC50,[3],> 33 µM
same,IC50,[2],930 nM
same,IC50,[4],> 33 µM
COc1ccc(-c2ncccc2NP(=O)(c2ccccc2)c2ccccc2)cc1,IC50,[2],17000 nM
same,IC50,[4],> 33 µM
O=P(Nc1cc(F)ccc1-n1cccn1)(c1ccccc1)c1ccccc1,IC50,[3],7.8 µM
same,IC50,[2],4100 nM
same,IC50,[4],> 33 µM
O=P(NCc1ccccc1-c1cccnc1)(c1ccccc1)c1ccccc1,IC50,[3],> 33 µM
same,IC50,[2],2300 nM
same,IC50,[4],> 33 µM
O=P(c1ccccc1)(c1ccccc1)C(c1cccnc1)c1cccnc1,IC50,[3],1 µM
same,IC50,[2],180 nM
O=P(NCc1cccnc1-c1cccc(Cl)c1)(c1ccccc1)c1ccccc1,IC50,[3],4.9 µM
same,IC50,[2],330 nM
N#Cc1cccc(-c2ncccc2CNP(=O)(c2ccccc2)c2ccccc2)c1,Activity,[5],Toxic
same,IC50,[3],7.7 µM
same,IC50,[2],540 nM
O=P(NCc1cccnc1-c1cc(Cl)cc(Cl)c1)(c1ccccc1)c1ccccc1,IC50,[3],13 µM
same,IC50,[2],80 nM
O=P(NCc1cccnc1-c1cccnc1)(c1ccccc1)c1ccccc1,IC50,[3],33 µM
same,IC50,[2],2700 nM
CCCN(c1cccnc1)P(=O)(c1ccccc1)c1ccccc1,bioavailability,[6],55%
same,clearance,[7],11 mL/min/kg
same,solubility,[8],91 µM
same,Papp,[9],30 ×10⁻⁶ cm/s
same,microsomal CLint,[10],158 µL/min/mg
same,Activity,[11],Toxic
same,Activity,[12],23%
same,logD,[1],2.6
same,Cp(f)ss,[13],0.8 µM
same,IC50,[3],14 µM
same,IC50,[2],120 nM
same,IC50,[4],> 33 µM
O=P(Nc1cccnc1)(c1ccccc1)c1ccccc1,IC50,[2],> 30000 nM
same,IC50,[4],> 33 µM
O=P(c1ccccc1)(c1ccccc1)N(c1cccnc1)c1cccnc1,IC50,[2],1600 nM
O=P(c1ccccc1)(c1ccccc1)N(Cc1ccccn1)c1cccnc1,Activity,[5],Toxic
same,IC50,[3],10 µM
same,IC50,[2],530 nM
same,IC50,[4],> 33 µM
COCCN(c1cccnc1)P(=O)(c1ccccc1)c1ccccc1,IC50,[3],> 33 µM
same,IC50,[2],620 nM
same,IC50,[4],> 33 µM
N#CCCCN(c1cccnc1)P(=O)(c1ccccc1)c1ccccc1,IC50,[3],31 µM
same,IC50,[2],1900 nM
same,IC50,[4],> 33 µM
O=P(c1ccccc1)(c1ccccc1)N(Cc1ccccn1)Cc1ccccn1,Activity,[5],Toxic
same,IC50,[3],> 33 µM
same,IC50,[2],1300 nM
same,IC50,[4],> 33 µM
CCCN(c1cncnc1)P(=O)(c1ccccc1)c1ccccc1,Activity,[11],Toxic
same,Activity,[12],<10%
same,Cp(f)ss,[13],0.6 µM
same,IC50,[3],> 33 µM
same,IC50,[2],1000 nM
O=P(c1ccccc1)(c1ccccc1)C(c1ccccc1)c1cccnc1 (racemic),IC50,[3],0.5 µM
same,IC50,[2],100 nM
O=P(c1ccccc1)(c1ccccc1)C(c1cccnc1)N1CCCCC1 (racemic),IC50,[3],1.8 µM
same,IC50,[2],140 nM
CCCNC(c1cccnc1)P(=O)(c1ccccc1)c1ccccc1 (racemic),IC50,[3],14 µM
same,IC50,[2],750 nM

# From ChEMBL document CHEMBL2311449, “Synthesis and evaluation of diphenylphosphinic amides and diphenylphosphine oxides as inhibitors of Kv1.5” (Bioorg Med Chem Lett, 2013)
